The values below come from patent US6706740B2, “Fungicidal heterocyclic aromatic amides and their compositions, methods of use and preparation” (Dow AgroSciences LLC, priority 1999, dated 2004).

Experiment [1] deals with Mycosphaerella graminicola (Septoria tritici—SEPTTR). In words: In vitro fungal growth inhibition, Mycosphaerella graminicola (SEPTTR). The experiment is classed as cell-based. The following applies: Zymoseptoria tritici; 25 ppm in the growth medium; read-out: SEPTTR in vitro Growth Inhibition.
Another experiment concerns Erysiphe graminis—ERYSGT. In words: Powdery Mildew of Wheat, in vivo whole plant, 24 Hour Protectant. The following applies: Erysiphe; wheat plants sprayed at 100 ppm, inoculated after 24 hours; control of fungal infection vs untreated plants; read-out: ERYSGT in vivo 1 Day Protectant.
The test system of experiment [2] is Magnaporthe grisea (Pyricularia oryzae—PYRIOR). Description: microbe, parasite or virus in culture. The class given is cell-based. The following applies: Pyricularia oryzae, read-out: PYRIOR in vitro Growth Inhibition.
Experiment [3] deals with Stagonospora nodorum (Leptosphaeria nodorum—LEPTNO). Description: In vitro fungal growth inhibition, Stagonospora nodorum (LEPTNO). The class given is cell-based. The following applies: Leptosphaeria; 25 ppm in the growth medium; read-out: LEPTNO in vitro Growth Inhibition.
In experiment [4] the test system is Phytophthora infestans (PHYTIN). In words: microbe, parasite or virus in culture. The experiment is classed as cell-based. The following applies: Phytophthora infestans, read-out: PHYTIN in vitro Growth Inhibition.
Experiment [5] has as its system Puccinia recondita—PUCCRT. Description: Brown Rust of Wheat, in vivo whole plant, 24 Hour Protectant. The following applies: Puccinia; wheat plants sprayed at 100 ppm, inoculated after 24 hours; control of fungal infection vs untreated plants; read-out: PUCCRT in vivo 1 Day Protectant.
For experiment [6], the system named is Phytophthora infestans—PHYTIN. In words: whole plant or invertebrate. The following applies: Phytophthora, in Solanum lycopersicum, 24 h, read-out: PHYTIN in vivo 1 Day Protectant. The experiment is classed as in vivo.
In experiment [7] the test system is Leptosphaeria nodorum—LEPTNO. In words: Glume Blotch of Wheat, in vivo whole plant, 24 Hour Protectant. The following applies: Leptosphaeria; wheat plants sprayed at 100 ppm, inoculated after 24 hours; control of fungal infection vs untreated plants; read-out: LEPTNO in vivo 1 Day Protectant.
In another experiment the test system is Septoria tritici—SEPTTR. Description: Leaf Blotch of Wheat, in vivo whole plant, 24 Hour Protectant. The following applies: Zymoseptoria tritici, 24 h, wheat plants sprayed at 100 ppm, inoculated after 24 hours; control of fungal infection vs untreated plants; read-out: SEPTTR in vivo 1 Day Protectant.
A further experiment has as its system Ustilago maydis (USTIMA). Description: microbe, parasite or virus in culture. The experiment is classed as cell-based. The following applies: Mycosarcoma maydis, read-out: USTIMA in vitro Growth Inhibition.
Experiment [8] has as its system Rhizoctonia solani (RHIZSO). In words: microbe, parasite or virus in culture. The experiment is classed as cell-based. The following applies: Rhizoctonia solani, read-out: RHIZSO in vitro Growth Inhibition.

Turning to `O=C(Nc1ccccc1Oc1ccc(C(F)(F)F)cc1)c1nc(Br)ccc1O` [Compound 493], the inhibition at 25 ppm (in experiment [1]; in [2]; in experiment [3]; in experiment [4]; in the experiment with Ustilago maydis (USTIMA); in experiment [8]) was under 80% throughout. In addition, the pest or weed control at 100 ppm in the experiment on Erysiphe graminis—ERYSGT was under 25%; in [5] it was under 25%; in experiment [6], under 25%; in [7], under 25%; in the experiment with Septoria tritici—SEPTTR, 25 to 74%.

For `O=C(Nc1cccc(Oc2ccccc2C(F)(F)F)c1)c1nc(Br)ccc1O` [Compound 494], the inhibition at 25 ppm (in [1]; in [2]; in experiment [3]; in [4]; in the experiment with Ustilago maydis (USTIMA); in [8]) was under 80% throughout. Also, the pest or weed control at 100 ppm in the experiment on Erysiphe graminis—ERYSGT is under 25%; in experiment [5], under 25%; in experiment [6], under 25%; in experiment [7] it was under 25%; in the experiment with Septoria tritici—SEPTTR, 25 to 74%.

Consider `O=C(Nc1cccc(Oc2cccc(C(F)(F)F)c2)c1)c1nc(Br)ccc1O` [Compound 495], for which the inhibition at 25 ppm (in [1]; in [2]; in experiment [3]; in [4]; in the experiment on Ustilago maydis (USTIMA); in experiment [8]) was under 80% in each case. Further, the pest or weed control at 100 ppm is 25 to 74% with Erysiphe graminis—ERYSGT; 25 to 74% in [5]; under 25% in experiment [6]; under 25% in [7]; 25 to 74% in the experiment on Septoria tritici—SEPTTR.

Turning to `O=C(Nc1cccc(Oc2ccc(C(F)(F)F)cc2)c1)c1nc(Br)ccc1O` [Compound 496], the inhibition at 25 ppm (in [1]; in experiment [2]; in [3]; in experiment [4]; with Ustilago maydis (USTIMA); in experiment [8]) was under 80% throughout. In addition, the pest or weed control at 100 ppm in the experiment on Erysiphe graminis—ERYSGT is under 25%; in [5] it was 25 to 74%; in experiment [6], under 25%; in [7], under 25%; with Septoria tritici—SEPTTR, 25 to 74%.

On to `O=C(Nc1ccc(Oc2ccccc2C(F)(F)F)cc1)c1nc(Br)ccc1O` [Compound 497], for which the inhibition at 25 ppm (in [1]; in experiment [2]; in experiment [3]; in experiment [4]; in the experiment on Ustilago maydis (USTIMA); in experiment [8]) was under 80% throughout. In addition, the pest or weed control at 100 ppm with Erysiphe graminis—ERYSGT was under 25%; in [5], 25 to 74%; in [6], under 25%; in experiment [7] it was 25 to 74%; in the experiment with Septoria tritici—SEPTTR, 25 to 74%.

For the compound `O=C(Nc1ccc(Oc2cccc(C(F)(F)F)c2)cc1)c1nc(Br)ccc1O` [Compound 498], the inhibition at 25 ppm (in [1]; in experiment [2]; in [3]; in [4]; in the experiment on Ustilago maydis (USTIMA); in [8]) was under 80% each time. For the same compound, the pest or weed control at 100 ppm was under 25% in the experiment on Erysiphe graminis—ERYSGT; 25 to 74% in [5]; under 25% in experiment [6]; under 25% in [7]; 25 to 74% in the experiment with Septoria tritici—SEPTTR.

`O=C(Nc1ccc(Oc2ccc(C(F)(F)F)cc2)cc1)c1nc(Br)ccc1O` [Compound 499]: the inhibition at 25 ppm (in experiment [1]; in experiment [2]; in experiment [3]; in [4]; in the experiment with Ustilago maydis (USTIMA); in experiment [8]) was under 80% each time. Moreover, the pest or weed control at 100 ppm is under 25% in the experiment with Erysiphe graminis—ERYSGT; 25 to 74% in [5]; under 25% in [6]; 25 to 74% in experiment [7]; under 25% in the experiment with Septoria tritici—SEPTTR.

For `N#Cc1ccc(Oc2cccc(NC(=O)c3nc(Br)ccc3O)c2)cc1` [Compound 500], the inhibition at 25 ppm (in experiment [1]; in [2]; in [3]; in experiment [4]; in the experiment with Ustilago maydis (USTIMA); in experiment [8]) was under 80% each time. Moreover, the pest or weed control at 100 ppm was under 25% with Erysiphe graminis—ERYSGT; under 25% in [5]; under 25% in experiment [6]; under 25% in experiment [7]; 25 to 74% in the experiment on Septoria tritici—SEPTTR.

Take `COc1cc(Br)nc(C(=O)N[C@H]2COC(=O)[C@H](Cc3ccccc3)[C@@H](OC(=O)C3CCCCC3)[C@H](C)OC2=O)c1O` [Compound 501]: the inhibition at 25 ppm in [1] was over 80%; in experiment [2], over 80%; in experiment [3], over 80%; in [4] it was under 80%; in the experiment on Ustilago maydis (USTIMA), over 80%; in [8], under 80%. In addition, the pest or weed control at 100 ppm was under 25% with Erysiphe graminis—ERYSGT; 25 to 74% in experiment [5]; under 25% in experiment [6]; 25 to 74% in experiment [7]; under 25% in the experiment with Septoria tritici—SEPTTR.

In the case of `CC1(C)CC(NC(=O)c2ccncc2O)CC(C)(C)C1` [Compound 505], the inhibition at 25 ppm (in experiment [1]; in [2]; in [3]; in [4]; with Ustilago maydis (USTIMA); in experiment [8]) was under 80% in each case. For the same compound, the pest or weed control at 100 ppm (in the experiment on Erysiphe graminis—ERYSGT; in experiment [5]; in experiment [6]; in [7]; in the experiment on Septoria tritici—SEPTTR) was under 25% throughout.

Consider `O=C(NCc1ccccc1)c1ccncc1O` [Compound 506], for which the inhibition at 25 ppm (in [1]; in experiment [2]; in experiment [3]; in experiment [4]; with Ustilago maydis (USTIMA); in experiment [8]) was under 80% each time. The pest or weed control at 100 ppm (with Erysiphe graminis—ERYSGT; in [5]; in experiment [6]; in [7]; with Septoria tritici—SEPTTR) was under 25% each time.

Turning to `O=C(NCc1ccc(Cl)cc1)c1ccncc1O` [Compound 507], the inhibition at 25 ppm (in [1]; in experiment [2]; in experiment [3]; in experiment [4]; in the experiment with Ustilago maydis (USTIMA); in [8]) was under 80% each time. The pest or weed control at 100 ppm (in the experiment on Erysiphe graminis—ERYSGT; in [5]; in experiment [6]; in [7]; in the experiment on Septoria tritici—SEPTTR) was under 25% each time.

Regarding `COc1ccc(C(C)NC(=O)c2ccncc2O)cc1` (stereo not shown) [Compound 508], the inhibition at 25 ppm (in experiment [1]; in experiment [2]; in experiment [3]; in experiment [4]; in the experiment on Ustilago maydis (USTIMA); in experiment [8]) was under 80% each time. Further, the pest or weed control at 100 ppm (with Erysiphe graminis—ERYSGT; in [5]; in experiment [6]; in experiment [7]; with Septoria tritici—SEPTTR) was under 25% in each case.

Consider `CC(NC(=O)c1ccncc1O)c1ccc(Cl)cc1` (stereo not shown) [Compound 509], for which the inhibition at 25 ppm (in experiment [1]; in experiment [2]; in [3]; in [4]; with Ustilago maydis (USTIMA); in experiment [8]) was under 80% throughout. For the same compound, the pest or weed control at 100 ppm (with Erysiphe graminis—ERYSGT; in [5]; in [6]; in [7]; in the experiment with Septoria tritici—SEPTTR) was under 25% in each case.

Usually inhibition stands for how much of the control response was suppressed.
